From ChEMBL document CHEMBL3046306, “Synthesis of new compounds derived from metronidazole and amino acids and their esters as antiparasitic agents” (Med Chem Res, 2012)

Key:
[1] = system: Entamoeba histolytica; test: Antiparasitic activity against Entamoeba histolytica HK-9 strain ATCC 30015 using trypan blue staining by hemocytometer; assay type: functional, organism-based
[2] = system: Giardia intestinalis; test: Antiparasitic activity against Giardia intestinalis WB strain ATCC 30957 using trypan blue staining by hemocytometer; assay type: functional, organism-based; conditions: Giardia duodenalis
[3] = Cytotoxicity against Chlorocebus aethiops (African green monkey) Vero cells assessed as concentration at which cell growth as in negative control after 48 hr by hemocytometer; assay type: cell-based; conditions: chlorocebus sabaeus, read-out: Activity
[4] = Cytotoxicity against Homo sapiens (human) Hep2 cells assessed as concentration at which cell growth as in negative control after 48 hr by hemocytometer; assay type: cell-based; conditions: HEp-2 cells, read-out: Activity

COC(=O)[C@H](Cc1c[nH]c2ccccc12)NC(=O)Cn1c([N+](=O)[O-])cnc1C
IC50 [1]: 8.29 µM
IC50 [2]: 16.6 µM

COC(=O)[C@H](CC(=O)O)NC(=O)Cn1c([N+](=O)[O-])cnc1C
MNTC at 48 h [3]: 314 µM
IC50 [1]: 2.21 µM
IC50 [2]: 2.26 µM
MNTC at 48 h [4]: 304 µM

CCOC(=O)C(CCCCNC(=O)Cn1c([N+](=O)[O-])cnc1C)NC(=O)Cn1c([N+](=O)[O-])cnc1C (configuration not stated)
IC50 [1]: 3.95 µM
IC50 [2]: 3.84 µM

Cc1ncc([N+](=O)[O-])n1CC(=O)N[C@@H](Cc1c[nH]c2ccccc12)C(=O)O
IC50 [1]: 17.2 µM
IC50 [2]: 18 µM

Cc1ncc([N+](=O)[O-])n1CCO [METRONIDAZOLE]
MNTC at 48 h [3]: 903 µM
IC50 [1]: 4.4 µM
IC50 [2]: 5.17 µM
MNTC at 48 h [4]: 869 µM

CCOC(=O)[C@H](C)NC(=O)Cn1c([N+](=O)[O-])cnc1C
MNTC at 48 h [3]: 72.2 µM
IC50 [1]: 2.1 µM
IC50 [2]: 2.18 µM
MNTC at 48 h [4]: 69.7 µM

Cc1ncc([N+](=O)[O-])n1CC(=O)N[C@@H](Cc1ccccc1)C(=O)O
IC50 [1]: 23.4 µM
IC50 [2]: 22.2 µM

Cc1ncc([N+](=O)[O-])n1CC(=O)N[C@@H](Cc1cnc[nH]1)C(=O)O
IC50 [1]: 16.2 µM
IC50 [2]: 17.2 µM

COC(=O)[C@H](Cc1ccc(O)cc1)NC(=O)Cn1c([N+](=O)[O-])cnc1C
IC50 [1]: 18.3 µM
IC50 [2]: 17.8 µM

COC(=O)[C@H](Cc1cnc[nH]1)NC(=O)Cn1c([N+](=O)[O-])cnc1C
IC50 [1]: 8.91 µM
IC50 [2]: 8.93 µM

COC(=O)[C@@H]1CCCN1C(=O)Cn1c([N+](=O)[O-])cnc1C
MNTC at 48 h [3]: 204 µM
IC50 [1]: 2.54 µM
IC50 [2]: 2.7 µM
MNTC at 48 h [4]: 169 µM

COC(=O)[C@H](Cc1ccccc1)NC(=O)Cn1c([N+](=O)[O-])cnc1C
IC50 [1]: 22.1 µM
IC50 [2]: 44.4 µM
